Source: patent US8426342B2, “Method for weed control in lawn” (priority 2008, dated 2013)

Assays:
Digitaria sanguinalis = test: Effectivity testing against weed plants ex. 5.3, in bermuda grass turf, Abbott %; assay type: in vivo
Source text: A co-formulation containing a mixture compounds no. […] Granules were applied with a shaker can.
Location: Sports turf, North Carolina, USA
Plot size: 1.4 m^2 and 3 replicates per treatment
Application timing: 27 Mar. 2007, spring application, early post for the weed
(§1) Effectivity was rated in percent (%) herbicidal effect compared with untreated control according to the method of Abbott mentioned above (see 5.1). 100% efficacy means full control; 0% efficacy means no control of the weed; all ratings above 80% are usually acceptable.
The application and evaluation were performed as described in example 5.2 with the following difference:
Turf grass species: Cynodon dactylon, variety (bermuda grass)
Weed species: Digitaria sanguinalis, Poa annua

Capsella bursa pastoris = test: Greenhouse herbicidal effect in weed control ex. 6.2, 2- to 3-leaves stage; assay type: in vivo; details: 6 g a.i./ha
Source text: (§2) That means, when applying the combinations according to the invention, herbicidal effects are observed on a harmful plant species which exceed the formal total of the effects of the herbicides present when these are applied by themselves. Alternatively, it is observed in some cases that a lower application rate is required for the herbicide combination in order to achieve the same effect on a harmful plant species in comparison with the individual products.
(§3) When the data observed already exceed the formal total (=E^A) of the data in the experiments with individual applications, they likewise exceed the expected value according to Colby, which is calculated using the formula below and is likewise regarded as an indication of synergism (cf. S. R. Colby; in Weeds 15 (1967) pp. 20 to 22): E=A+B−(A·B/100)
(§4) In this formula: • A=action of active compound (A) in % at an application rate of a g of AS/ha; • B=action of active compound (B) in % at an application rate of b g of AS/ha; • E=expected value of the action of the combination (A)+(B) in % at the combined application rate a+b g of AS/ha.
(§5) The data observed in the experiments show, at suitably low dosages, an action of the combinations which exceeds the expected values according to Colby (=E^C).

[1] = system: Cynodon dactylon (Bermuda grass); test: Phytotoxicity of the turf ex. 5.1, % injury vs untreated; assay type: in vivo; details: 157 DAT
Source text: (§6) Each plot was divided by different pre-treatments 1 week before application of the trial treatments: • A) Pre-treatment with glyphosate-isopropylammonium allowing to evaluate in this section the pre-emergence effect against weeds. • B) No pre-treatment, present winter annual weeds are received a post-emergence application.
(§7) 2005, applied on dormant turf in winter
Additionally, phytotoxicity of the turf was rated as percent (%) injury compared with untreated control.

Lamium amplexcaule = test: Effectivity testing against weed plants ex. 5.1, Abbott %; assay type: in vivo, Lamium amplexicaule
Source text: as §6, §7
as §1, with “according to the formula [(X−Y)/X]100 where X is the absolute level/scoring of the control plants, Y is the level/scoring of the treated plants.” for “mentioned above (see 5.1).”

Taraxacum officinalis = test: Greenhouse herbicidal effect in weed control ex. 6.2, 1- to 2-leaves stage; assay type: in vivo; details: 6 g a.i./ha
Source text: as §2, §3, §4, §5

Cc1ccc2c(c1)[C@H](Nc1nc(N)nc([C@@H](C)F)n1)[C@@H](C)C2 (stereo in doubt) [(A21)/(A22), indaziflam]
Herbicidal effect (%) on Digitaria sanguinalis (Digitaria sanguinalis; 12.5 g a.i./ha, 138 DAT): 43%
Herbicidal effect (%) on Digitaria sanguinalis (Digitaria sanguinalis; 12.5 g a.i./ha, 180 DAT): 57%
Herbicidal effect (%) on Digitaria sanguinalis (Digitaria sanguinalis; 25.0 g a.i./ha, 35 DAT): 95%
Herbicidal effect (%) on Digitaria sanguinalis (Digitaria sanguinalis; 25.0 g a.i./ha, 56 DAT): 96%
Herbicidal effect (%) on Digitaria sanguinalis (Digitaria sanguinalis; 25.0 g a.i./ha, 68 DAT): 98%
Herbicidal effect (%) on Digitaria sanguinalis (Digitaria sanguinalis; 25.0 g a.i./ha, 107 DAT): 97%
Herbicidal effect (%) on Digitaria sanguinalis (Digitaria sanguinalis; 25.0 g a.i./ha, 138 DAT): 93%
Herbicidal effect (%) on Digitaria sanguinalis (Digitaria sanguinalis; 25.0 g a.i./ha, 180 DAT): 93%
Herbicidal effect (%) on Digitaria sanguinalis (Digitaria sanguinalis; 50.0 g a.i./ha, 35 DAT): 97%
Herbicidal effect (%) on Digitaria sanguinalis (Digitaria sanguinalis; 50.0 g a.i./ha, 56 DAT): 98%
Herbicidal effect (%) on Digitaria sanguinalis (Digitaria sanguinalis; 50.0 g a.i./ha, 68 DAT): 99%
Herbicidal effect (%) on Digitaria sanguinalis (Digitaria sanguinalis; 50.0 g a.i./ha, 107 DAT): 99%
Herbicidal effect (%) on Digitaria sanguinalis (Digitaria sanguinalis; 50.0 g a.i./ha, 138 DAT): 100%
Herbicidal effect (%) on Digitaria sanguinalis (Digitaria sanguinalis; 50.0 g a.i./ha, 180 DAT): 100%
Herbicidal effect (%) on Digitaria sanguinalis (Digitaria sanguinalis; 100.0 g a.i./ha, 35 DAT): 96%
Herbicidal effect (%) on Digitaria sanguinalis (Digitaria sanguinalis; 100.0 g a.i./ha, 56 DAT): 99%
Herbicidal effect (%) on Digitaria sanguinalis (Digitaria sanguinalis; 100.0 g a.i./ha, 68 DAT): 99%
Herbicidal effect (%) on Digitaria sanguinalis (Digitaria sanguinalis; 100.0 g a.i./ha, 107 DAT): 99%
Herbicidal effect (%) on Digitaria sanguinalis (Digitaria sanguinalis; 100.0 g a.i./ha, 138 DAT): 99%
Herbicidal effect (%) on Digitaria sanguinalis (Digitaria sanguinalis; 100.0 g a.i./ha, 180 DAT): 99%
Herbicidal effect (%) on Digitaria sanguinalis (Digitaria sanguinalis; 200.0 g a.i./ha, 35 DAT): 98%
Herbicidal effect (%) on Digitaria sanguinalis (Digitaria sanguinalis; 200.0 g a.i./ha, 56 DAT): 99%
Herbicidal effect (%) on Digitaria sanguinalis (Digitaria sanguinalis; 200.0 g a.i./ha, 68 DAT): 99%
Herbicidal effect (%) on Digitaria sanguinalis (Digitaria sanguinalis; 200.0 g a.i./ha, 107 DAT): 100%
Herbicidal effect (%) on Digitaria sanguinalis (Digitaria sanguinalis; 200.0 g a.i./ha, 138 DAT): 100%
Herbicidal effect (%) on Digitaria sanguinalis (Digitaria sanguinalis; 200.0 g a.i./ha, 180 DAT): 100%
Herbicidal effect (%) 7 DAT on Capsella bursa pastoris (Capsella bursa pastoris): 0%
Phytotoxicity (%) on Turf ([1]; 25 g a.i./ha, section with glyphosate pre-treatment (Table 20)): 0%
Phytotoxicity (%) on Turf ([1]; 25 g a.i./ha, section without pre-treatment (Table 21)): 0%
Phytotoxicity (%) on Turf ([1]; 50 g a.i./ha, section with glyphosate pre-treatment (Table 20)): 0%
Phytotoxicity (%) on Turf ([1]; 50 g a.i./ha, section without pre-treatment (Table 21)): 0%
Phytotoxicity (%) on Turf ([1]; 75 g a.i./ha, section with glyphosate pre-treatment (Table 20)): 0%
Phytotoxicity (%) on Turf ([1]; 75 g a.i./ha, section without pre-treatment (Table 21)): 0%
Herbicidal effect (%) on Lamium amplexcaule, Post-emergence application without pre-treatment (Lamium amplexcaule; 25 g a.i./ha, 124 DAT): 91%
Herbicidal effect (%) on Lamium amplexcaule, Pre-emergence application after pre-treatment (Lamium amplexcaule; 25 g a.i./ha, 124 DAT): 58%
Herbicidal effect (%) on Lamium amplexcaule, Post-emergence application without pre-treatment (Lamium amplexcaule; 25 g a.i./ha, 151 DAT): 50%
Herbicidal effect (%) on Lamium amplexcaule, Pre-emergence application after pre-treatment (Lamium amplexcaule; 25 g a.i./ha, 151 DAT): 40%
Herbicidal effect (%) on Lamium amplexcaule, Post-emergence application without pre-treatment (Lamium amplexcaule; 50 g a.i./ha, 124 DAT): 89%
Herbicidal effect (%) on Lamium amplexcaule, Pre-emergence application after pre-treatment (Lamium amplexcaule; 50 g a.i./ha, 124 DAT): 100%
Herbicidal effect (%) on Lamium amplexcaule, Post-emergence application without pre-treatment (Lamium amplexcaule; 50 g a.i./ha, 151 DAT): 67%
Herbicidal effect (%) on Lamium amplexcaule, Pre-emergence application after pre-treatment (Lamium amplexcaule; 50 g a.i./ha, 151 DAT): 90%
Herbicidal effect (%) on Lamium amplexcaule, Post-emergence application without pre-treatment (Lamium amplexcaule; 75 g a.i./ha, 124 DAT): 83%
Herbicidal effect (%) on Lamium amplexcaule, Pre-emergence application after pre-treatment (Lamium amplexcaule; 75 g a.i./ha, 124 DAT): 100%
Herbicidal effect (%) on Lamium amplexcaule, Post-emergence application without pre-treatment (Lamium amplexcaule; 75 g a.i./ha, 151 DAT): 67%
Herbicidal effect (%) on Lamium amplexcaule, Pre-emergence application after pre-treatment (Lamium amplexcaule; 75 g a.i./ha, 151 DAT): 100%
Herbicidal effect (%) 7 DAT on Taraxacum officinalis (Taraxacum officinalis): 20%
